Test results reported in ChEMBL document CHEMBL5620362 (Eur J Med Chem, 2023).
Activity calls are given as the source filed them. The rule behind the calls is not given here.

Experiments:
[1] = tested on: HPAF-II; test: Inhibition of MAPK signalling pathway in human HPAF-II cells at 20 uM incubated for 24 hrs by KEGG analysis; assay type: functional, cell-based
[2] = tested on: HPAF-II; test: Inhibition of RAS signalling pathway in human HPAF-II cells at 20 uM incubated for 24 hrs by KEGG analysis; assay type: functional, cell-based
[3] = tested on: HPAF-II; test: Downregulation of retinol metabolism-related gene expression in human HPAF-II cells at 20 uM incubated for 24 hrs by KEGG analysis; assay type: functional, cell-based
[4] = tested on: HPAF-II; test: Downregulation of drug metabolism-related gene expression in human HPAF-II cells at 20 uM incubated for 24 hrs by KEGG analysis; assay type: functional, cell-based
[5] = tested on: HPAF-II; test: Downregulation of phosphorylated ERK expression in human HPAF-II cells at 20 uM incubated for 48 hrs by Western blot analysis; assay type: functional, cell-based
[6] = tested on: HPAF-II; test: Downregulation of cancer-related gene expression in human HPAF-II cells at 20 uM incubated for 24 hrs by KEGG analysis; assay type: functional, cell-based
[7] = target: T1, Nuclear receptor ROR-gamma (Homo sapiens, UniProt P51449); test: Binding affinity to CM5 chip-immobilized recombinant ROR-gamma LBD (unknown origin) assessed as dissociation constant by SPR analysis
T1 sequence (P51449 whole entry): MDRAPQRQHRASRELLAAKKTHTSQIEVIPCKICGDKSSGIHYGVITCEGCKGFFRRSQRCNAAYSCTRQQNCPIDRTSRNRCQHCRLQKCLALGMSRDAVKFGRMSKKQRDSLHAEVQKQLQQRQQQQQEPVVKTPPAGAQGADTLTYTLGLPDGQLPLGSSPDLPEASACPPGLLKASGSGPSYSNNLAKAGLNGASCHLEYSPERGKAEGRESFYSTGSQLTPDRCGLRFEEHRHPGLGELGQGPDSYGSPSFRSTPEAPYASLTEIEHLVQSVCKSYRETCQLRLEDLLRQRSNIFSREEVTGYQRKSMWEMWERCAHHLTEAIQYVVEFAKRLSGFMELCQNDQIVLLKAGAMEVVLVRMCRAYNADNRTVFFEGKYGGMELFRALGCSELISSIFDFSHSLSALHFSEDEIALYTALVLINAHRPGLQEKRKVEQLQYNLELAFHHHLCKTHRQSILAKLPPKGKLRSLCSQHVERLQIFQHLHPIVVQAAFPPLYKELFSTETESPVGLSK

[8] = tested on: HPAF-II; test: Downregulation of phosphorylated MEK expression in human HPAF-II cells at 20 uM incubated for 48 hrs by Western blot analysis; assay type: functional, cell-based
[9] = target: T2, Nuclear receptor ROR-gamma (Homo sapiens) (UniProt P51449); test: Binding affinity to ROR-gamma LBD (unknown origin) assessed as protein stabilization by measuring reduction in hydrolysis rate incubated for 10 mins by SDS-PAGE analysis; settings: filed as antagonist, dose <= 100.0 µM
T2 sequence (whole entry): T1 sequence (P51449 whole entry)

[10] = tested on: HPAF-II; test: Downregulation of chemical carcinogenesis-related gene expression in human HPAF-II cells at 20 uM incubated for 24 hrs by KEGG analysis; assay type: functional, cell-based
[11] = tested on: HPAF-II; test: Antitumor activity against human HPAF-II cells measured after 72 hrs; assay type: functional, cell-based
[12] = target: T1, Nuclear receptor ROR-gamma; test: Antagonist activity at ROR-gamma LBD (unknown origin) using biotinylated SRC1-2 as substrate preincubated for 60 mins followed by substrate addition measured after 30 mins by HTRF assay
[13] = tested on: HPAF-II; test: Downregulation of phosphorylated AKT expression in human HPAF-II cells at 20 uM incubated for 48 hrs by Western blot analysis; assay type: functional, cell-based
[14] = tested on: HPAF-II; test: Downregulation of cancer-related gene expression in human HPAF-II cells at 20 uM incubated for 24 hrs by GO analysis; assay type: functional, cell-based
[15] = tested on: HPAF-II; test: Downregulation of retinol metabolism-related gene expression in human HPAF-II cells at 20 uM incubated for 24 hrs by GO analysis; assay type: functional, cell-based
[16] = target: T1, Nuclear receptor ROR-gamma; test: Binding affinity to ROR-gamma LBD (unknown origin) assessed as dissociation constant by ITC analysis
[17] = tested on: HPAF-II; test: Downregulation of lipid metabolism-related gene expression in human HPAF-II cells at 20 uM incubated for 24 hrs by GO analysis; assay type: functional, cell-based
[18] = target: T2, Nuclear receptor ROR-gamma (Homo sapiens); test: Binding affinity to ROR-gamma LBD (265 to 507 residues)(unknown origin) assessed as increase in thermal stability by measuring change in melting temperature at 100 uM incubated for 2 hrs followed by heating at 20 to 90 degreeC by NanoDSF assay (reference value: 46.0 degreeC); settings: filed as antagonist
[19] = tested on: HPAF-II; test: Effect on mTORC1 signalling pathway in human HPAF-II cells at 20 uM incubated for 24 hrs by KEGG analysis; assay type: functional, cell-based
[20] = target: T2, Nuclear receptor ROR-gamma (Homo sapiens); test: Binding affinity to ROR-gamma LBD (265 to 507 residues)(unknown origin) assessed as increase in thermal stability by measuring melting temperature at 100 uM incubated for 2 hrs followed by heating at 20 to 90 degreeC by NanoDSF assay (reference value: 46.0 degreeC); settings: filed as antagonist

## C=C(C)[C@@H]1CC[C@]2(C(=O)O)CC[C@]3(C)[C@H](CC[C@@H]4[C@@]5(C)CC[C@H](O)C(C)(C)[C@@H]5CC[C@]43C)[C@@H]12 [BETULINIC ACID]
[1]
  inhibition: Active
[2]
  inhibition: Active
[3]
  Activity: Active
[4]
  Activity: Active
[5]
  Activity: Active
[6]
  Activity: Active
[7]
  Kd: 2700 nM
[8]
  Activity: Active
[9]
  Activity: Dose-Dependent Effect
[10]
  Activity: Active
[11]
  IC50: 12.5 µM
[12]
  IC50: 2200 nM
[13]
  Activity: Active
[14]
  Activity: Active
[15]
  Activity: Active
[16]
  Kd: 3.39 µM
[17]
  Activity: Active
[18]
  ΔTm: 14.1 °C
[19]
  Activity: Active
[20]
  Tm: 60.2 °C
